Results taken from PubChem BioAssay AID588844 (Broad Institute, 2011).
Active and inactive are the calls of the source. The rule behind the calls is not given here.

Test system: not listed separately
Experiment: HMLE_shECad cancer stem cell-like viability inhibition, dose response, CellTiter-Glo luminescence, dry powder, set 2 (AID 588844)
Conditions: HMLE_shECad viability, CellTiter-Glo luminescence, 72 h; at 32 µM (top of the series)
For COc1ccc(/C=C/C(=O)NC2=NCCS2)c(OC)c1, the remaining viability fraction was 70.8% (inactive). With Cc1ccc(/C=C/C(=O)NC2=NCCS2)cc1 the remaining viability fraction was 75.7% (inactive). For Cc1csc(NC(=O)c2ccc(COc3cccc(F)c3)o2)n1, the remaining viability fraction was 65.6% (inactive).

Test system: HMLE_shECad viability, CellTiter-Glo luminescence, 72 h
Experiment: as above
Conditions: not given
For CC(C)c1ccc(/C=C/C(=O)NC2=NCCS2)cc1, the AC50 was 300 nM. Compound Cc1csc(NC(=O)c2ccc(COc3ccccc3)o2)n1 has an AC50 of 70 nM. In the case of O=C(NC1CCCC1)c1ccc(COc2ccccc2)o1, the AC50 is reported as 23500 nM. O=C(/C=C/c1ccc(-c2ccccc2)cc1)NC1=NCCS1 gave an AC50 of 625 nM. Cc1csc(NC(=O)c2ccc(COc3cccc(Cl)c3)o2)n1 gave an AC50 of 3000 nM. Cc1csc(NC(=O)c2ccc(COc3ccccc3F)o2)n1 showed an AC50 of 2430 nM.
